pIC50: −log10 of the molar value. Read-outs that look alike come from different tables or passages of the source.
Legend:
[1] = Metabolic stability in human cryopreserved hepatocytes; assay type: in vitro ADME
Procedure: (§1) Metabolic stability in human primary hepatocytes
This assay was performed at Sai Life Sciences Lt. (Telangana, India) with human suspension hepatocytes […]
(§2) All other reactions were initiated by […]
analysis by LC-MS/MS, using MRM mode. […]
related to phase I and phase II metabolism, respectively.
The PARs were used for calculation of metabolic stability. The 0 min area ratio was considered as 100%. The […]
incubation volume / number of cells (in millions) x K e. To calculate into full body context, the values of 120 […]

[2] = test system: TGFβ pathway; assay: Cellular TGFβ reporter (12xCAGA luciferase) assay in HEK293T cells; assay type: cell-based; conditions: for pIC50: Homo sapiens, HEK-293T, 5 ng/mL recombinant TGFβ, 12xCAGA luciferase reporter, read-out: cellular inhibition TGFβ pathway IC50
Procedure: We next tested the three inhibitors in a cellular assay, using a luciferase-based reporter assay[20] in HEK293T cells in the presence or absence of inhibitors (Table 1). Upon activation of the endogenous receptors by 5 ng/mL recombinant TGFβ, phosphorylation of the TGFBR1 triggers phosphorylation of the intracellular mediators SMAD2/3, and subsequent nuclear translocation with SMAD4. The SMAD2/3-SMAD4 complex binds to the TGFβ response element (12xCAGA) allowing the transcription of the Firefly luciferase reporter.
HEK293T cells were purchased from the ATCC and cultured in DMEM supplemented with L-glutamine and 10% fetal bovine serum (Life Technologies) at 37 °C and 5% CO2. The cells were seeded in 24-well plates and transfected with plasmids encoding 12xCAGA-Firefly_Luc and Tk-Renilla_Luc (75 and 10 ng per well, respectively) using polyethylenimine (Polysciences) as the transfection reagent. After 7 h, the medium was replaced with starvation medium (DMEM + 0.05% FBS). […] Bioluminescence was measured in a Berthold Lumat LB6507 luminometer (18 μL of reagents, 10 s measurements). Results were normalized to those of the Renilla transfection control. Inhibition–concentration curves were analyzed in Prism Graphpad Prism (v10.1.1) with a least-squares regression nonlinear fit.

[3] = test system: mouse tumor organoids (MTOs), established CRC liver metastases; assay: Treatment of established CRC liver metastases, alone or with anti-PD1; assay type: in vivo, mice; conditions: for Cure of established liver metastases as monotherapy: 0.1× doses: 80, 82 and 71 mg/kg BID for galunisertib, vactosertib and HYL001, anti-PD1 IP alone
Procedure: Encouraged by the increased potency observed in vitro and in the inhibition of liver metastatic initiation in vivo, we evaluated the ability of a relatively low HYL001 dose to help overcome established liver metastases when combined with immune checkpoint inhibition. In this experimental set up, a low number of MTO cells (25K) was injected in the portal vein (leaving the spleen unaltered), and liver metastases were allowed to develop and grow for 15 days before treatment with TGFβ inhibitors was initiated. This was done in combination with 3–4 intraperitoneal (IP) injections of immune-checkpoint inhibition therapy (anti-PD1 or isotype control antibody), spaced 2–3 days (Figure 6A,B).
Figure 6 HYL001 efficacy in dual immunotherapy against established CRC liver metastases. (A) Overview of experimental timing: dual treatment between days 14 and 28 after MTO injection (TGFβ inhibitor doses were all 0.1 ×); follow-up until humane end point. Below: numbers of countable liver lesions after sacrifice. Statistical comparisons to the vehicle + IgG2a control (above) or the vehicle+αPD1 condition (below) by two-tailed Mann–Whitney U test; ns: P ≥ 0.05; *P < 0.05; **P < 0.01; ***P < 0.001; ****P < 0.0001. (B) Kaplan–Meier curves indicate the survival (until humane end point) of mice under each treatment; P values were computed by the Mantel–Cox test (Log-rank).
For all tumor cell injections, C57BL/6J (or athymic BALB/C nu/nu) mice were purchased from Janvier at 6 weeks of age and injected at 7–8 weeks. Sex was matched with the origin of the tumor organoids, i.e., males for this study. Intrasplenic or portal vein injections, respectively, with 31G needles on 1 mL insulin syringes or 33G needles on a 50/100 μL Hamilton syringe, were used for liver colonization by the introduction of dissociated organoids (single cells) into the portal circulation. MTOs were cultured in standard six-well plates for 4 days and trypsinized as described before.[5] The resulting single cell suspension in HBSS (Lonza) was filtered through 100 and 40 μm mesh (to remove clumps of cells and aggregated debris). Intrasplenic injections were performed, as previously described,[5],[8],[9] using 2 × 10^5 cells in 70 μL HBSS. For portal vein injections, […] in 25 μL HBSS were injected directly into the portal vein.[5] Mice were euthanized at 3–5 weeks or at the humane end point (advanced metastasis-associated morbidity causing or threatening to cause severe suffering) to obtain survival-type data. Visible liver metastases were counted, and data were analyzed using GraphPad Prism software (v.7.03).
Gavage treatments were performed by technicians from the animal facility, not involved in this study (blinded). For checkpoint immunotherapy or dual treatments, we used rat anti-PD-1 (RMP1–14; Leinco P372) or rat IgG2a (Leinco I-1177) isotype-control antibodies.

[4] = Buffer stability (hepatocyte assay control); assay type: physicochemical
Procedure: Similarly, buffer was added to recovery and stability samples. Next,
Samples were monitored for
parent compound using multiple reaction monitoring (MRM) mode. […]
as §1
This assay was performed at Sai Life Sciences Lt. (Telangana, India) with human suspension hepatocytes
as §2

[5] = test system: panel of 97 wild-type and disease-relevant mutant kinases; assay type: binding; conditions: for Additional kinases showing >85% competitive binding: besides ALK5 and ALK4/ACVR1B
From the text: We also assessed the selectivity of these three inhibitors toward a panel of 97 wild-type and disease-relevant mutant kinases, distributed throughout various kinase families.
Figure 2 Selectivity of HYL001. […] TK: tyrosine kinases; TKL: tyrosine kinase-like kinases; STE: serine/threonine kinases; CK1: casein kinase 1 family; AGC: serine/threonine kinases, regulated by secondary messengers such as cyclic AMP (PKA) or lipids (PKC); CAMK: Ca^2+/calmodulin-dependent protein kinase family; and CMGC: primarily proline-directed serine/threonine kinases (CDKs, GSKs, MAP kinases, and CDK-like kinases).
5. Methods for In vitro characterizations of HYL001
Kinase affinity and selectivity
The affinity of the ALK5 inhibitor HYL001 was determined for the ALK kinase family using the […]
DNA-tagged kinases and immobilized assay ligands, using quantitative PCR —run by Eurofins/DiscoveryX (Birmingham AL, USA). Dissociation constants were calculated by measuring the amount of kinase captured on the solid support as a function of the test compound concentration. Kd values were obtained by an 11 -point […]
(BMPR1A), ALK4 (ACVR1B), ALK6 (BMPR1B), ACVR2B and TGFβ R2. In addition, this technology was […]
The strength of competitive binding, defined as the percentage of binding inhibition of kinases to assay ligan d, was visualized using the TREEspot software (DiscoverRx Corporation) and a selectivity score was calculated (the fraction of non -mutated kinases tested with competitive binding inhibition above threshold percentages 65 […]

[6] = 10 μM compound, 90 kinases tested
[7] = human, hepatocytes, 0 h, pH 7.4
[8] = human, hepatocytes, 5 min, pH 7.4
[9] = human, hepatocytes, 0.25 h, pH 7.4
[10] = human, hepatocytes, 0.5 h, pH 7.4
[11] = human, hepatocytes, pH 7.4, Disappearance T1/2

Row | SMILES | pIC50 [2] | Cure of established liver metastases as monotherapy [3] | Number of kinase interactions (>65% competitive binding inhibition) [5, 6] | Additional kinases showing >85% competitive binding [5] | Parent compound remaining [1, 7] | Parent compound remaining [1, 8] | Parent compound remaining [1, 9] | Parent compound remaining [1, 10] | CLint scaled ([1]; human, hepatocytes, pH 7.4) | half-life [1, 11] | Buffer Stability ([4]; 0 min, pH 7.4) | Buffer Stability ([4]; 60 min, pH 7.4) | also measured
1 | Cc1cccc(-c2[nH]c(CNc3ccccc3F)nc2-c2ccc3ncnn3c2)n1 [vactosertib, N -((4-([1,2,4]Triazolo[1,5-a]Pyridin-6-Yl)-5-(6-Methylpyridin-2-Yl)-1 H -Imidazole-2-Yl)Methyl)-2-Fluoroaniline] | 8.00 | not efficacious | 24 | ERBB2, FGFR2/3, KIT, MEK1/2, PDGFRA/B, SRC, and VEGFR2 |  |  |  |  |  |  |  |  | CLint scaled ([1]; hepatocytes (suspension, cryopreserved), pH 7.4, scaled using 120 M cells per g liver, liver weight 20 g/kg (human), read-out: Scaled in vivo Clint): 30.1 mL/min/kg; Parent compound remaining ([1]; human hepatocytes, incubation time 0 min): 100%; Parent compound remaining ([1]; human hepatocytes, incubation time 5 min): 60%; Parent compound remaining ([1]; human hepatocytes, incubation time 15 min): 59%; Parent compound remaining ([1]; human hepatocytes, incubation time 30 min): 52%; Parent compound remaining ([1]; human hepatocytes, incubation time 60 min): < 50%; Parent compound remaining ([1]; human hepatocytes, incubation time 60 min, listed as Vactosertib): 39%; half-life ([1]; human, hepatocytes (suspension, cryopreserved), pH 7.4, human hepatocytes, read-out: Disappearance T1/2): 55.3 min; Buffer Stability ([4]; 0 min): 100%; Buffer Stability ([4]; 60 min): 84%
2 | Cc1cccc(-c2nn3c(c2-c2ccnc4ccc(C(N)=O)cc24)CCC3)n1 [galunisertib] | 6.80 | not efficacious | 10 |  | 100% | 97% | 92% | 90% | 10.4 mL/min/kg | > 60 min | 100% | 105% | Parent compound remaining ([1]; human, hepatocytes, 1 h, pH 7.4): 76%; half-life ([1]; human, hepatocytes, pH 7.4, Assumed T1/2): 160 min
3 | Cc1cccc(-c2nn3c(c2-c2ccnc4ccc(O)cc24)CCC3)n1 [HYL001, 4-(2-(6-Methylpyridin-2-yl)-5,6-dihydro-4H-pyrrolo[1,2-b]pyrazol-3-yl)quinolin-6-ol] | 7.14 | not efficacious | 13 | ABL-1, CSNK1G2, and p38α | 100% | 67% | 59% | 56% | 32.1 mL/min/kg | 51.8 min | 100% | 117% | Fold higher potency compared to galunisertib in TGFβ reporter assay [2]: ~2 fold; Tumor burden in numbers of liver nodules ([3]; dual therapy with anti-PD1): marked overall reduction; Mice cured at the end point (number) ([3]; dual therapy with anti-PD1, 71 mg/kg BID): 8/10; Mice cured at the end point ([3]; dual therapy with anti-PD1, 71 mg/kg BID, surviving 2.5 months after injection): up to 80%; Number of kinase interactions (>65% competitive binding inhibition) ([5]; 0.3 μM compound, 22 kinases tested): 1; Number of kinase interactions (>65% competitive binding inhibition) ([5]; 3 μM compound, 22 kinases tested): 5; Selectivity score S(>65_10), fraction of wildtype kinases inhibited >65% ([5]; 10 μM compound): 0.144; Selectivity score S(>90_10), fraction of wildtype kinases inhibited >90% ([5]; 10 μM compound): 0.1; Selectivity score S(>65_10), fraction of wildtype kinases inhibited >65% ([5]; 10 μM compound, listed as HYL): 0.14

From article PMC11729428, “New Potent Inhibitor of Transforming Growth Factor-Beta (TGFβ) Signaling that is Efficacious against Microsatellite Stable Colorectal Cancer Metastasis in Combination with Immune Checkpoint Therapy in Mice” (ACS Pharmacology & Translational Science, 2024)
